# Results taken from patent publication US20260041679A1, “METHOD OF TREATING HYPERTENSION WITH THE ALDOSTERONE SYNTHASE INHIBITOR BAXDROSTAT” (CINCOR PHARMA, INC., priority 2022, published 2026).
# Columns and labels:
# [1] = Single ascending dose study, safety and tolerability (Example 1); type: in vivo; settings: single dose 1 to 360 mg
# Method: Eighty-eight healthy male volunteers completed the first-in-human study of baxdrostat. In part 1 of the trial, subjects received a single oral dose of baxdrostat ranging from 1 to 360 mg in order to evaluate safety, tolerability, PK, and pharmacodynamics (PD). Part 2 evaluated the PK of a single 3 mg intravenous dose of baxdrostat.
# aldosterone synthase = target: T1, aldosterone synthase (Homo sapiens, UniProt P19099); assay: Multiple ascending dose study, pharmacodynamics: plasma aldosterone, cortisol, electrolytes (Example 2); type: in vivo
# T1 construct: Pharmacodynamic measurements included plasma aldosterone, cortisol, and electrolytes; endogenous in cells; host or cells: human subjects in vivo (healthy volunteers; resistant hypertension patients)
# T1 sequence (P19099 25-503): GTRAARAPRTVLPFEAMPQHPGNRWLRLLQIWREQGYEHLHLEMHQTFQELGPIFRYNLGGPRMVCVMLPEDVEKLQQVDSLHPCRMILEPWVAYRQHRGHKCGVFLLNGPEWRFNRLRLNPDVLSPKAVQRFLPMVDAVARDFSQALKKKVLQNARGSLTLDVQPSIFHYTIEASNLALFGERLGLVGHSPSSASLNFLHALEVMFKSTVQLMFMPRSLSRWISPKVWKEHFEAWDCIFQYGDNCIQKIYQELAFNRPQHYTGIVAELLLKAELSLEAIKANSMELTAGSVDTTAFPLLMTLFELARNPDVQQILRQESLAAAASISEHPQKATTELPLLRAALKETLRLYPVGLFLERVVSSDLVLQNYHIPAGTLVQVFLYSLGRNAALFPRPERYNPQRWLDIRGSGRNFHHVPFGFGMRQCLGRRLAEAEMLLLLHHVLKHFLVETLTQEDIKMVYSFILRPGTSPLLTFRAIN
# Method: This randomized, double-blind, placebo-controlled phase 1 study evaluated the safety, pharmacokinetics, and pharmacodynamics of multiple ascending doses of baxdrostat in healthy volunteers. Fifty-six subjects were randomized to receive oral baxdrostat (0.5, 1.5, 2.5, or 5.0 mg) or placebo once daily for ten days and were placed on either a low salt or normal salt diet for the duration of the study. In particular, subjects were randomized into 5 cohorts to receive baxdrostat or placebo once daily for 10 days. Cohorts 1 and 2 were placed on a low salt diet to stimulate aldosterone production and were administered 2.5 or 5.0 mg oral baxdrostat, respectively. Cohorts 1 and 2 also underwent an adrenocorticotropic hormone (ACTH) challenge to increase aldosterone and cortisol levels to evaluate the specificity of baxdrostat for targeting aldosterone synthase. Cohorts 3, 4, and 5 were placed on a normal salt diet and were administered 1.5, 2.5, or 0.5 mg oral baxdrostat, respectively. Blood samples were collected prior to and after dosing on days 1 and 10 for measurement of plasma baxdrostat concentrations to characterize single-dose and steady-state pharmacokinetics. Pharmacodynamic measurements included plasma aldosterone, cortisol, and electrolytes. Safety assessments included physical examination, electrocardiograms, orthostatic vital signs, and clinical laboratory evaluations.
# [2] = Relative bioavailability tablet vs oral solution and food effect (Example 3); type: in vivo, human; settings: for Tmax: human, plasma, oral, 5 mg
# Method: The relative bioavailability of a tablet formulation of baxdrostat was compared to the oral solution of baxdrostat that was administered in the SAD (Example 1) and MAD (Example 2) studies. A single 5 mg dose of each formulation in fourteen healthy volunteers established that plasma levels of baxdrostat were equivalent whether administered using the oral solution or tablet. This study also assessed the effect of a standardized high-fat meal on the PK of baxdrostat.
# [3] = Safety in hepatic function study (Example 5); type: in vivo, human
# Method: Subjects with moderate hepatic impairment (Child-Pugh Category B, n=10) and healthy controls (n=10) were each given a single 10 mg oral dose of baxdrostat. Subjects were matched by age, sex, body mass index, race, and smoking status. Serial blood and urine samples were collected to determine plasma and urine concentrations of baxdrostat for 7 days postdose. Safety was assessed based on adverse events, clinical laboratory evaluations, vital signs, electrocardiogram and physical examinations.
# [4] = Study 121: serum electrolytes and eGFR; type: in vivo, human
# Source text: Aldosterone plays a direct role in the pathogenesis of hypertension via increasing renal absorption of sodium and water while promoting excretion of potassium. There is the potential therefore for an aldosterone synthesis inhibitor to cause the electrolyte abnormalities of hyperkalemia or hyponatremia. Moreover, the decrease in SBP expected with aldosterone inhibitors will reduce blood flow through the afferent arterioles in the kidney, leading to an apparent decline in determination of eGFR. These potential perturbations in kidney physiology were closely monitored throughout the study via the measurement of serum electrolytes and eGFR.
smiles,measurement,setting,value
"CCC(=O)N[C@@H]1CCCc2c(-c3ccc4c(c3)CCC(=O)N4C)cncc21 [baxdrostat, (R)—N-(4-(1-methyl-2-oxo-1,2,3,4-tetrahydroquinolin-6-yl)-5,6,7,8-tetrahydroisoquinolin-8-yl) propionamide]","deaths, serious adverse events, dose-limiting adverse events",[1],"no deaths, serious adverse events, or dose-limiting adverse events"
same,side effects,[1],"mild and included headache, nasopharyngitis, and diarrhea"
same,"plasma aldosterone, reduction",aldosterone synthase; Day 10,51-73%
same,plasma aldosterone,"aldosterone synthase; doses ≥1.5 mg, regardless of diet",dose-dependent reduction of plasma aldosterone
same,plasma cortisol,"aldosterone synthase; once daily, 10 days",no meaningful impact on plasma cortisol
same,plasma sodium levels,"aldosterone synthase; once daily, 10 days",mild dose-dependent decreases in plasma sodium levels
same,potassium levels,"aldosterone synthase; once daily, 10 days",increases in potassium levels
same,Tmax,[2]; fasted state,~3 h
same,Tmax,[2]; fed state (high-fat meal),~4 h
same,"plasma levels, oral solution vs tablet",[2]; single 5 mg dose of each formulation,equivalent
same,effect of high-fat meal on plasma levels,"[2]; tablet, single 5 mg",no noteworthy effect
same,"clinical laboratory evaluations, vital signs, electrocardiograms, physical examinations",[3]; both groups,No clinically significant changes
same,TEAE deemed related to baxdrostat,[3]; normal hepatic function group,One TEAE of headache with moderate severity
same,"deaths, serious TEAEs, study discontinuations","[3]; single 10 mg, both hepatic function groups","no deaths, serious treatment-emergent adverse events (TEAE), or study discontinuations"
same,AEs of renal impairment,[4]; 0.5 mg,no cases
same,"change in serum potassium from baseline to end of treatment, mean (standard deviation)",[4]; 0.5 mg,0.19 (0.474) mEq/L
same,"change in serum sodium from baseline to end of treatment, mean (SD)",[4]; 0.5 mg,−1.2 (2.73) mEq/L
same,patients with mild hyponatremia (serum sodium <130 mEq/L),[4]; 0.5 mg,1 patients
same,AEs of renal impairment,[4]; 1 mg,3
same,"change in serum potassium from baseline to end of treatment, mean (standard deviation)",[4]; 1 mg,0.36 (0.481) mEq/L
same,"change in serum sodium from baseline to end of treatment, mean (SD)",[4]; 1 mg,−1.1 (3.03) mEq/L
same,patients with mild hyponatremia (serum sodium <130 mEq/L),[4]; 1 mg,7 patients
same,AEs of renal impairment,[4]; 2 mg,1
same,"change in serum potassium from baseline to end of treatment, mean",[4]; 2 mg,0.29 mEq/L
same,"change in serum sodium from baseline to end of treatment, mean",[4]; 2 mg,−2.4 mEq/L
same,patients with mild hyponatremia (serum sodium <130 mEq/L),[4]; 2 mg,1 patients
same,mean eGFR,"[4]; 0.5, 1, 2 mg QD",mild dose-dependent decrease in mean eGFR
same,overall rate of moderate hyperkalemia (potassium>6.0 mEq/L),[4]; 2 highest dose groups,2.2%
same,patients with moderate hyperkalemia (potassium>6.0 mEq/L),[4]; 2 highest dose groups,3 patients
same,moderate hypokalemia (potassium 3.0 to 2.5 mEq/L),[4]; any baxdrostat dose groups,no cases
same,"relationship between dose and serum calcium, serum phosphorus",[4]; in vivo,no apparent relationship
